Source: BindingDB's records for patent US20230295157 (Janssen Pharmaceutica, 2023)

How the values were obtained:
Coagulation factor XI = Coagulation factor XI (Homo sapiens, UniProt P03951); assay: Factor XIa Inhibition Assay Utilizing a Fluorophore-Quencher Pair Peptide Substrate
Description: A fluorescence intensity (FLINT) based assay was used to monitor inhibition of Factor XIa. The peptide substrate, 5Fam-[…]-K5Tamra (purchased from New England Peptide) was chosen based on the FXI sequence. Conversion of zymogen FXI to its activated form, FXIa, occurs by proteolytic cleavage by […] at two sites, Arg146 and Arg180. The custom peptide used in this assay was based on the Arg146 cleavage site of FXI. The peptide substrate was designed with a fluorophore-quencher pair, where the fluorescence is quenched until FXIa cleaves the 8-mer peptide after the Arg residue. […] The Factor XIa FLINT assay was used with the following 5Fam-[…]-K5Tamra assay buffer: 50 mM Tris, pH 7.5, 100 mM NaCl, 5 mM CaCl2), 0.1 mg/mL BSA, 0.03% CHAPS. Assay buffer was prepared by mixing all ingredients fresh. 5Fam-[…]-K5Tamra peptide substrate was first prepared at 10 mM in 100% DMSO, then diluted to 3 mM in 100% DMSO.

Plasma kallikrein = Plasma kallikrein (Homo sapiens, UniProt P03952); assay: Kallikrein Inhibition Assay Utilizing a Quenched AMC Peptide Substrate
Procedure: A fluorescence intensity (FLINT) based assay was used to monitor inhibition of human plasma kallikrein. The peptide substrate, Z-Gly-Pro-Arg-AMC (Purchased from Bachem; Catalog #I-1150) was chosen based on its relatively low KM for kallikrein which enables running the assay at lower substrate concentrations to control background fluorescence. The kinetic parameters for this substrate were determined by fitting titration data to the Michaelis-Menten equation yielding a KM=40 μM, kcat=0.76 s−1, and kcat/KM=18932 M−1s−1. The Kallikrein FLINT assay was used with the following Z-Gly-Pro-Arg-AMC assay buffer: 50 mM Tris, pH 7.5, 100 mM NaCl, 5 mM CaCl2), 0.1 mg/mL BSA, 0.03% CHAPS. Assay buffer was prepared by mixing all ingredients fresh. 2×Z-Gly-Pro-Arg-AMC peptide substrate was prepared by diluting 10 mM stock into 1×assay buffer for a 100 μM working concentration (50 μM final concentration). The 2×kallikrein stock solution was prepared by diluting 14.76 μM stock in 1×assay buffer for a 4 nM working stock solution (2 nM final concentration).

Chain of Coagulation factor XI (P03951 19-387 limits assumed): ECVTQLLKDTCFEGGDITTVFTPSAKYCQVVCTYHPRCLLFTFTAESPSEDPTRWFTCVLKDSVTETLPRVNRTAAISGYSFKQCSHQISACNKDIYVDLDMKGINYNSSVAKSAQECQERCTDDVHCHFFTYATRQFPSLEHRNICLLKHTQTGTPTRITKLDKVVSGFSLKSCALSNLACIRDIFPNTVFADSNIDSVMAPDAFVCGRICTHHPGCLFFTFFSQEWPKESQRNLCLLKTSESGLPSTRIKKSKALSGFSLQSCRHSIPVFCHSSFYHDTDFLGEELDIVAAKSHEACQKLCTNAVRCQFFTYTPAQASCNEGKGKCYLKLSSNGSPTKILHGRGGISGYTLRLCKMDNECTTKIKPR
Chain of Coagulation factor XI (P03951 388-625 limits assumed): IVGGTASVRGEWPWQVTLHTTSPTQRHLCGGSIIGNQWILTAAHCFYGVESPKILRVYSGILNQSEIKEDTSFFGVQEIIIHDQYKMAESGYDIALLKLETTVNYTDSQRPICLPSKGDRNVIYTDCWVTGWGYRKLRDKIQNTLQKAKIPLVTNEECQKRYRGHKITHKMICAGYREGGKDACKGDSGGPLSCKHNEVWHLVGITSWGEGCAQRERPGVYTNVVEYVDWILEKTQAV
Chain of Plasma kallikrein (P03952 20-390 limits assumed): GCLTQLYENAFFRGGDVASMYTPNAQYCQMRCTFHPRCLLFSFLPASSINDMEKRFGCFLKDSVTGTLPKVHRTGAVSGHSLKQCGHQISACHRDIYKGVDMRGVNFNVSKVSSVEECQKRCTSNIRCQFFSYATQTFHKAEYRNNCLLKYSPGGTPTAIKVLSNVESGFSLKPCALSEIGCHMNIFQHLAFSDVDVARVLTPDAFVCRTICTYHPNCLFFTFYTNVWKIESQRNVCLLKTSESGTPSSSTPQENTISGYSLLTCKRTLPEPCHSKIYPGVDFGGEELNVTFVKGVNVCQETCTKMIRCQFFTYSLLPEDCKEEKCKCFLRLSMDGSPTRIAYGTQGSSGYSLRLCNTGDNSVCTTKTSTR
Chain of Plasma kallikrein (P03952 391-638 limits assumed): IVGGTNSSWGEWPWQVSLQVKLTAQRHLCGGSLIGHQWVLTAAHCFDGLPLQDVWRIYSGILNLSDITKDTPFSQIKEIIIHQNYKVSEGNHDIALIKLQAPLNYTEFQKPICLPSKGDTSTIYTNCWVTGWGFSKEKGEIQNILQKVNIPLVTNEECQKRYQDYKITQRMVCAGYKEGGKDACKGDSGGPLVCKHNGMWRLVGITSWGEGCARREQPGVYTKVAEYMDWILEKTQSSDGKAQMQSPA

IC50 (Coagulation factor XI) [nM]	IC50 (Plasma kallikrein) [nM]	SMILES
47.8	103	O=C1C=C(c2c(-n3cnnn3)ccc(Cl)c2F)C[C@H]2CC[C@@H](c3nc(-c4csc(CO)n4)c[nH]3)N12 [US20230295157, Example 22]
4.1	6	NC(=O)c1ccc(-c2cnc([C@@H]3CC[C@@H]4CC(c5c(-n6cnnn6)ccc(Cl)c5F)=CC(=O)N43)[nH]2)cc1F [US20230295157, Example 197]

SMILES	IC50 (Coagulation factor XI) [nM]	IC50 (Plasma kallikrein) [nM]
C[C@H](CO)Oc1nccc(-c2cnc([C@@H]3CC[C@H]4CC(c5c(-n6cnnn6)ccc(Cl)c5F)=CC(=O)N43)[nH]2)c1F (relative stereo) [US20230295157, Example 169]	42.3	40.1
